In US11957783B2, “Topical immunosensitizers to treat viral and fungal infections” (Squarex, LLC, priority 2018, dated 2024):

Tested on: peripheral blood mononuclear cells (PBMC)
Experiment: Cytokine and immune-function gene expression of PBMC in vitro (qRT-PCR, 41 immune-related genes)
Format: cell-based, human
Details: Group A
Procedure: After a screening visit at which blood was drawn to test for IgG antibody against HSV-1 and subjects were interviewed for inclusion/exclusion criteria, selected subjects returned for blood draws on day 1. After the blood draw on day 1, subjects in group A only were dosed with SADBE. A petrolatum donut was applied with a cotton swab to form about a 1 cm diameter donut on skin on the inner aspect of the upper arm. Then a separate cotton swab was dipped in a 2% SADBE solution (w/v) in DMSO, and the swab was then used to apply about 10-20 mg of solution over about a 1 cm diameter circle within the petrolatum donut. Immediately after application, the application site was covered with TEGADERM. Subjects were advised to remove the TEGADERM and rinse and wipe the spot three hours later. The group A subjects then returned for blood draws on days 15 and 57 and were queried about adverse events on those dates.
PBMC were isolated using SepMate PBMC isolation tubes (Stem Cell Technologies, Vancouver, Canada) and Ficoll-Paque according to the manufacturer's instructions. PBMC were isolated and suspended in negative control medium at 2 million cells/ml. PBMC suspension (100 μL) was added to 100 μL of medium in quadruplicate in 96-well plates. The plates were prepared in advance and stored at −70° C. The wells were in five different conditions in quadruplicate with these final concentrations after addition of the 100 μL of PBMC suspension in negative control medium. • 1. Negative control in medium (RPMI with glutamine and pen/strep, supplemented with 10% human A/B serum). • 2. Medium plus 16 μg/ml protein from heat-inactivated HSV-1-infected Vero cell extracts. • 3. Medium plus heat-inactivated HSV-1 cell-free virus at a final 7.5 million pfu/ml. • 4. Medium plus Candida cell extract. (Greer item number M15A50, 20,000 pnu/ml allergenic extract mixed molds Candida albicans, was diluted 1/50 into medium). • 5. Positive control, medium plus 10 μg/ml concanavalin A.
Two plates were created for each subject at each collection point. One plate was incubated for 2 days at 37° C. in a humidified 5% CO2 atmosphere and then RNA was isolated from the pooled contents of the 4 wells of a given condition for a specific patient, and the RNA was stored at −70° C. and subsequently used for quantitative real time PCR analysis of gene expression of 41 immune-related genes.
As noted above, after 2 days of growth of the PBMC in a 37° C. humidified 5% CO2 incubator in a 96-well plate, four wells of a single condition (negative control, positive control, heat-inactivated HSV-1, HSV-1-infected cell extracts, or Candida extract) with cells from a single subject (200 μL in each well) were pooled, and the RNA was immediately isolated with Trizol reagent and chloroform by Qiagen RNeasy MiniElute clean up kit Qiagen cat #74204, according to manufacturer's instructions into a final volume of 13 μL, and then flash frozen on powdered dry ice, and stored at −70° C. in aliquots of 3 μL for RNA quantification and 10 μL for PCR analysis.
RNA was preamplified with the Qiagen RT2 PreAMP cDNA synthesis kit (Ref. 330451) and custom RT2 PreAmp primer mix (Ref. 330141) starting with about 50 ng RNA according to the procedure of RT preamp cDNA synthesis handbook date March 2011, pages 17-20. The amplification reactions (final 120 μL) were frozen at −70° C. and used for qPCR analysis the next day.
qPCR was done with the Qiagen RT PCR profiler gene analysis kit (catalog number 330451) using RT2 Sybr Green Rox qPCR Mastermix (24) (Part 330523) and Custom RT2 PCR array plates (Ref. 330171). For this 675 μL 2×RT2 SYBR green mastermix, 51 μL pre-AMP synthesis reaction, and 623 μL RNase free water were mixed, and then 25 μL of the mixture was added to 48 wells on the left or right half of the custom PCR plate. The PCR instrument was Applied Biosystems 7900HT fast real time PCR. […]

## CCCCOc1c(OCCCC)c(=O)c1=O [SADBE, 3,4-Dibutoxy-3-cyclobutene-1,2-dione]
HSV-infected cell extracts
  IFNB1 ratio of PBMC absolute gene expression day 57/day 1: 0.65
  IFNG ratio of PBMC absolute gene expression day 15/day 1: 1.26
  IFNG ratio of PBMC absolute gene expression day 57/day 1: 5.72
  IL1B ratio of PBMC absolute gene expression day 15/day 1: 1.48
  IL1B ratio of PBMC absolute gene expression day 57/day 1: 21.45
  IL1R1 ratio of PBMC absolute gene expression day 15/day 1: 0.89
  IL1R1 ratio of PBMC absolute gene expression day 57/day 1: 1.11
  IL1RN ratio of PBMC absolute gene expression day 15/day 1: 0.94
  IL1RN ratio of PBMC absolute gene expression day 57/day 1: 0.79
  IL2 ratio of PBMC absolute gene expression day 15/day 1: 0.98
  IL2 ratio of PBMC absolute gene expression day 57/day 1: 2.48
  IL4 ratio of PBMC absolute gene expression day 15/day 1: 0.77
  IL4 ratio of PBMC absolute gene expression day 57/day 1: 0.89
  IL5 ratio of PBMC absolute gene expression day 15/day 1: 0.83
  IL5 ratio of PBMC absolute gene expression day 57/day 1: 0.50
  IL8 ratio of PBMC absolute gene expression day 15/day 1: 0.99
  IL8 ratio of PBMC absolute gene expression day 57/day 1: 3.86
  IL10 ratio of PBMC absolute gene expression day 15/day 1: 1.19
  IL10 ratio of PBMC absolute gene expression day 57/day 1: 3.29
  IL12A ratio of PBMC absolute gene expression day 15/day 1: 0.90
  IL12A ratio of PBMC absolute gene expression day 57/day 1: 0.89
  IL12B ratio of PBMC absolute gene expression day 15/day 1: 0.80
  IL12B ratio of PBMC absolute gene expression day 57/day 1: 0.23
  IL13 ratio of PBMC absolute gene expression day 15/day 1: 1.01
  IL13 ratio of PBMC absolute gene expression day 57/day 1: 2.28
  IL15 ratio of PBMC absolute gene expression day 15/day 1: 0.93
  IL15 ratio of PBMC absolute gene expression day 57/day 1: 0.87
  IL16 ratio of PBMC absolute gene expression day 15/day 1: 1.03
  IL16 ratio of PBMC absolute gene expression day 57/day 1: 1.02
  JAK2 ratio of PBMC absolute gene expression day 15/day 1: 0.86
  JAK2 ratio of PBMC absolute gene expression day 57/day 1: 0.82
  LTA ratio of PBMC absolute gene expression day 15/day 1: 1.03
  LTA ratio of PBMC absolute gene expression day 57/day 1: 0.99
  LYZ ratio of PBMC absolute gene expression day 15/day 1: 0.73
  LYZ ratio of PBMC absolute gene expression day 57/day 1: 0.29
  MX1 ratio of PBMC absolute gene expression day 15/day 1: 0.89
  MX1 ratio of PBMC absolute gene expression day 57/day 1: 0.66
  NOD1 ratio of PBMC absolute gene expression day 15/day 1: 1.04
  NOD1 ratio of PBMC absolute gene expression day 57/day 1: 0.89
  SPP1 ratio of PBMC absolute gene expression day 15/day 1: 2.09
  SPP1 ratio of PBMC absolute gene expression day 57/day 1: 5.38
  STAT1 ratio of PBMC absolute gene expression day 15/day 1: 0.90
  STAT1 ratio of PBMC absolute gene expression day 57/day 1: 0.91
  STAT4 ratio of PBMC absolute gene expression day 15/day 1: 0.89
  STAT4 ratio of PBMC absolute gene expression day 57/day 1: 1.01
  TNF ratio of PBMC absolute gene expression day 15/day 1: 1.17
  TNF ratio of PBMC absolute gene expression day 57/day 1: 1.2
  TNFSF10 ratio of PBMC absolute gene expression day 15/day 1: 0.84
  TNFSF10 ratio of PBMC absolute gene expression day 57/day 1: 0.88
  TNFSF13B ratio of PBMC absolute gene expression day 15/day 1: 0.93
  TNFSF13B ratio of PBMC absolute gene expression day 57/day 1: 1.07
Neg. control
  CCL2 ratio of PBMC absolute gene expression day 15/day 1: 0.35
  CCL2 ratio of PBMC absolute gene expression day 57/day 1: 1.15
  CCL3 ratio of PBMC absolute gene expression day 15/day 1: 0.47
  CCL3 ratio of PBMC absolute gene expression day 57/day 1: 1.79
  CCL7 ratio of PBMC absolute gene expression day 15/day 1: 0.25
  CCL7 ratio of PBMC absolute gene expression day 57/day 1: 1.35
  CCR5 ratio of PBMC absolute gene expression day 15/day 1: 1.00
  CCR5 ratio of PBMC absolute gene expression day 57/day 1: 1.19
  CD80 ratio of PBMC absolute gene expression day 15/day 1: 0.66
  CD80 ratio of PBMC absolute gene expression day 57/day 1: 1.16
  CXCL2 ratio of PBMC absolute gene expression day 15/day 1: 0.51
  CXCL2 ratio of PBMC absolute gene expression day 57/day 1: 1.33
  CXCL5 ratio of PBMC absolute gene expression day 15/day 1: 0.36
  CXCL5 ratio of PBMC absolute gene expression day 57/day 1: 1.78
  CXCL9 ratio of PBMC absolute gene expression day 15/day 1: 2.50
  CXCL9 ratio of PBMC absolute gene expression day 57/day 1: 4.93
  CXCL10 ratio of PBMC absolute gene expression day 15/day 1: 0.94
  CXCL10 ratio of PBMC absolute gene expression day 57/day 1: 0.68
  CXCL11 ratio of PBMC absolute gene expression day 15/day 1: 0.62
  CXCL11 ratio of PBMC absolute gene expression day 57/day 1: 0.83
  DDX58 ratio of PBMC absolute gene expression day 15/day 1: 0.82
  DDX58 ratio of PBMC absolute gene expression day 57/day 1: 0.83
  FOXP3 ratio of PBMC absolute gene expression day 15/day 1: 0.95
  FOXP3 ratio of PBMC absolute gene expression day 57/day 1: 1.07
  GATA3 ratio of PBMC absolute gene expression day 15/day 1: 1.06
  GATA3 ratio of PBMC absolute gene expression day 57/day 1: 0.84
  ICAM1 ratio of PBMC absolute gene expression day 15/day 1: 1.10
  ICAM1 ratio of PBMC absolute gene expression day 57/day 1: 1.34
  IFNA1 ratio of PBMC absolute gene expression day 15/day 1: 1.20
  IFNA1 ratio of PBMC absolute gene expression day 57/day 1: 1.47
  IFNB1 ratio of PBMC absolute gene expression day 15/day 1: 0.99
  IFNB1 ratio of PBMC absolute gene expression day 57/day 1: 0.73
  IFNG ratio of PBMC absolute gene expression day 15/day 1: 1.05
  IFNG ratio of PBMC absolute gene expression day 57/day 1: 1.24
  IL1B ratio of PBMC absolute gene expression day 15/day 1: 0.16
  IL1B ratio of PBMC absolute gene expression day 57/day 1: 2.09
  IL1R1 ratio of PBMC absolute gene expression day 15/day 1: 1.00
  IL1R1 ratio of PBMC absolute gene expression day 57/day 1: 0.6
  IL1RN ratio of PBMC absolute gene expression day 15/day 1: 0.90
  IL1RN ratio of PBMC absolute gene expression day 57/day 1: 1.35
  IL2 ratio of PBMC absolute gene expression day 15/day 1: 0.80
  IL2 ratio of PBMC absolute gene expression day 57/day 1: 1.21
  IL4 ratio of PBMC absolute gene expression day 15/day 1: 0.86
  IL4 ratio of PBMC absolute gene expression day 57/day 1: 0.98
  IL5 ratio of PBMC absolute gene expression day 15/day 1: 0.99
  IL5 ratio of PBMC absolute gene expression day 57/day 1: 0.39
  IL8 ratio of PBMC absolute gene expression day 15/day 1: 0.62
  IL8 ratio of PBMC absolute gene expression day 57/day 1: 2.38
  IL10 ratio of PBMC absolute gene expression day 15/day 1: 0.90
  IL10 ratio of PBMC absolute gene expression day 57/day 1: 1.04
  IL12A ratio of PBMC absolute gene expression day 15/day 1: 0.84
  IL12A ratio of PBMC absolute gene expression day 57/day 1: 0.98
  IL12B ratio of PBMC absolute gene expression day 15/day 1: 0.40
  IL12B ratio of PBMC absolute gene expression day 57/day 1: 1.38
  IL13 ratio of PBMC absolute gene expression day 15/day 1: 0.88
  IL13 ratio of PBMC absolute gene expression day 57/day 1: 1.69
  IL15 ratio of PBMC absolute gene expression day 15/day 1: 0.95
  IL15 ratio of PBMC absolute gene expression day 57/day 1: 1.13
  IL16 ratio of PBMC absolute gene expression day 15/day 1: 1.06
  IL16 ratio of PBMC absolute gene expression day 57/day 1: 0.89
  JAK2 ratio of PBMC absolute gene expression day 15/day 1: 0.91
  JAK2 ratio of PBMC absolute gene expression day 57/day 1: 0.93
  LTA ratio of PBMC absolute gene expression day 15/day 1: 0.94
